These results are taken from paper PMC12190736, “Development and In Vitro Characterization of [^3H]GMC-058 as Radioligand for Imaging Parkinsonian-Related Proteinopathies” (Cells, 2025).

Read-outs that look alike come from different tables or passages of the source.

One assay deals with Aβ fibrils (Homo sapiens, UniProt P05067). Description: [^3H]PiB binding displacement on AD brain homogenates. Particulars: AD brain homogenate, 1 nM [^3H]PiB. The protocol:
(§1) Compounds’ affinity for tau and Aβ fibrils was measured by means of radioligand binding displacement experiments on AD brain homogenates, using [^3H]NFT-355 [8] (AbbVie, North Chicago, IL, USA) and [^3H]Pittsburg Compound-B (PiB; Novandi Chemistry AB, Södertälje, Sweden) to label tau and Aβ aggregates, respectively. Flash-frozen tissue from the frontal cerebral cortex of an AD (Braak stage V) brain was purchased from Analytical Biological Services Inc. (ABS; Wilmington, DE, USA), homogenized in DPBS, divided into aliquots (10 mg/mL), and stored at −80 °C until the day of the experiment.
(§2) On the day of the experiment, the brain homogenate was brought to RT, diluted in DPBS plus 0.1% BSA and incubated for 90 min, at RT, with 0.5 nM [^3H]NFT-355 or 1 nM [^3H]PiB, in the absence or presence of different concentrations of non-radiolabeled compounds. Bound radioligand was separated from free radioligand via rapid filtration and washings with cold DPBS, using a Unifilter-96 GF/B filter plate (presoaked in 0.3% PEI) and a Unifilter Cell Harvester (PerkinElmer). Plates were air-dried, and the scintillation liquid (Betaplate Scint, PerkinElmer) was added and counted using a MicroBeta2 2450. NSB was defined as the binding in the presence of 10 µM T808 [10] (AbbVie Germany) and 10 µM PiB for [^3H]NFT-355 and [^3H]PiB, respectively. Data fitting was performed using the software platform from Dotmatics (Boston, MA, USA).

A further assay addresses tau fibrils (Homo sapiens, UniProt P10636). Description: [^3H]NFT-355 binding displacement on AD brain homogenates. Particulars: AD brain homogenate, 0.5 nM [^3H]NFT-355. The protocol: as §1, §2
Assay [1] deals with recombinant α-syn fibrils (Homo sapiens, UniProt P37840). Description: Radioligand binding displacement of [^3H]-α-syn-tool on α-syn fibrils. Particulars: 5 nM [^3H]-α-syn-tool. The protocol:
Compound affinity for α-syn fibrils was measured by means of radioligand binding displacement experiments of an AbbVie tool radioligand with high affinity for α-syn fibrils ([^3H]-α-syn-tool). The aggregation of α-syn monomers into fibrils was obtained as described by Bousset et al.. In brief, monomers (5 mg/mL, prepared in AbbVie (Worcester, MA, USA) were incubated in 150 mM of KCl and 50 mM of Tris-HCl (pH 7.5) for 7 days at 37 °C, under constant shaking conditions (650 rpm, Eppendorf Thermomixer C, Eppendorf, Hamburg, Germany). After incubation, the fibrils were harvested via ultra-centrifugation (40,100× g, 30 min, 20 °C), resuspended in buffer, sonicated (40% amplitude, 10 s pulse on, 5 s pulse off) for 4.5 min at 20 °C, divided into aliquots (5.5 mg/mL), and stored at −80 °C until the day of the experiment. The characterization of the fibrils included protein content determination (BCA method) and an analysis of Proteinase K degradation pattern.
On the day of the experiment, α-syn fibrils were thawed for a few minutes at 37 °C, diluted in Dulbecco’s Phosphate Buffered Saline (PBS) without calcium and magnesium, pH = 7.4 (DPBS) plus 0.1% bovine serum albumin (BSA), and incubated (at the final fibrils concentration of 2.5 µg/mL) for 60 min, at room temperature (RT), with 5 nM [^3H]-α-syn-tool, in the absence or presence of different concentrations of non-radiolabeled compounds. Bound radioligand was separated from free radioligand via rapid filtration and washings with cold DPBS, using a Unifilter-96 GF/B filter plate (PerkinElmer, Rodgau, Germany) presoaked in 0.3% polyethylenimmine (PEI) and a Unifilter Cell Harvester (PerkinElmer, Rodgau, Germany). Plates were air-dried, and the scintillation liquid (Betaplate Scint, PerkinElmer) was added and counted using a MicroBeta2 2450 (Perkinelmer, Rodgau, Germany). Non-specific binding (NSB) was defined as the binding in the presence of 10 µM unlabeled α-syn tool. Data fitting and the constant of inhibition (Ki) calculation was performed using the software platform from Dotmatics (Boston, MA, USA).

Assay [2] concerns fresh-frozen human brain sections. Description: Autoradiography on fresh-frozen brain tissue sections. Format: binding. Particulars: for NSB: 5 µM GMC044; for NSB / Total Minus NSB / Total binding: gray matter of cingulate cortex, control C03; for Binding displaced by GMC-044: 5 µM GMC-044, control cingulate cortex tissue; for Binding in control tissue: cingulate cortex of healthy controls. On the procedure: Selections of frozen human sections (described in Table 2 and Table 3) were used for binding autoradiography. Sections were first pre-incubated for 20 min in binding buffer [50 mM Tris-HCl (pH 7.4), 120 mM NaCl, 5 mM KCl, 2 mM CaCl2, 1 mM MgCl2, and 0.1% BSA] and then incubated with [^3H]GMC-058 (specific activity 22 Ci/mmol); [^3H]GMC-073 (specific activity 23.4 Ci/mmol); or […] in binding buffer for 180 min at RT. In the pilot autoradiography experiment (Figure A1). [^3H]GMC-058 was tested at 25 and 50 nM, while [^3H]GMC-073 and [^3H]GMC-098 were each tested at 10 and 20 nM. For all other autoradiography in fresh-frozen tissue sections, 25 nM [^3H]GMC-058 was used. To determine NSB, adjacent brain sections were incubated with [^3H]-tracer mixed with 5 μM of unlabeled GMC-044. The binding reaction was stopped with two 10 min washes in washing buffer [50 mM Tris-HCl (pH 7.4) at 4 °C] and a brief dip in cold distilled water. Slides were allowed to air-dry before being placed under storage phosphor screens (Fujifilm Plate BAS-TR2025, Fujifilm, Tokyo, Japan) in imaging cassettes for 90 h together with ART0123C and ART0123B tritium standards on glass slides (American Radiolabeled Chemicals Inc., St. Louis, MO, USA). Storage phosphor screens were scanned using an Amersham Typhoon FLA-9500 phosphor imaging scanner (Cytiva, Marlborough, MA, USA), and the resulting images were analyzed using Multi Gauge 3.2 phosphor imager software (Fujifilm, Tokyo, Japan) for ROI delimitation, density calibration, and quantification. Quantitative binding data from duplicates of the total, and NSB were plotted and analyzed using graphPad Prism v10 (GraphPad Software, Boston, MA, USA). Specific binding was determined by subtracting the non-specific signal from the total signal. The toluidine blue staining of adjacent sections was used to obtain anatomical references for white- and gray-matter ROI selection. Care was taken not to include artifact signals in the ROIs analyzed. These artifacts were identified as randomly placed punctate signals appearing in both total and NSB images, and they often coincided with small folds or tears in the tissue sections.

For a further assay, the target named is pTau. Particulars: AD; read-out: IC50 or KD pTau; cited from earlier work.
The target in the next assay is α-syn. Particulars: cited from earlier work.
Another assay concerns the target Aβ. Particulars: AD; read-out: IC50 or KD Aβ; cited from earlier work.

Aβ fibrils, sequence (P05067 672-711 limits assumed): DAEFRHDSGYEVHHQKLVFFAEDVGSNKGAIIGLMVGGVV
tau fibrils, sequence (P10636 623-708 limits assumed): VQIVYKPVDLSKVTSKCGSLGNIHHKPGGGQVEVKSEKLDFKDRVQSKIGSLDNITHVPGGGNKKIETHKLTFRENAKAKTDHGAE

What is called Ki is the equilibrium dissociation constant of an inhibitor or competing ligand from its target. `COc1ccc(/C=C/c2ccc(N3CCN(c4ccc(C#N)cn4)CC3)cc2)cn1` [GMC013_FR-1]: the Ki was determined as 63 nM on Aβ fibrils, 151 nM at tau fibrils and 25.5 nM in assay [1].
Taken in the same sequence, the figures for `COc1ccc(-c2ccc(NC(=O)N3CCN(c4ccccn4)CC3)cc2C#N)cc1` [GMC015] were 294 nM, 761 nM and 28.3 nM.
The corresponding values for `O=C(Nc1ccc(N2CCN(Cc3ccc(Cl)c(Cl)c3)CC2)cc1)c1cnccn1` [GMC021] are 889 nM, 2510 nM and 22.2 nM.
Taken in the same sequence, the figures for `COc1ccccc1CC(=O)Nc1ccc(N2CCN(c3ccc(C#N)cn3)CC2)cc1` [GMC023] were 151 nM, 44 nM and 21.2 nM.
For `COc1cccc(CC(=O)Nc2ccc(N3CCN(c4ccc(C#N)cn4)CC3)cc2)c1` [GMC024], the Ki on Aβ fibrils worked out at 81 nM; on tau fibrils it was 68 nM; in assay [1] it was 25.3 nM.
On to `COc1ccc(CC(=O)Nc2ccc(N3CCN(c4ccc(C#N)cn4)CC3)cc2)cc1` [GMC025], for which the values for the inhibitory constant (Ki) (on Aβ fibrils; at tau fibrils; in assay [1]) were 141 nM, 50 nM and 29.7 nM, respectively.
Taken in the same sequence, the figures for `C[C@@H](C(=O)Nc1ccc(N2CCN(c3ccc(C#N)cn3)CC2)cc1)c1ccccc1` [GMC044] were 3440 nM, 692 nM and 25.2 nM.
Regarding `COc1ccccc1NC(=O)Nc1ccc(N2CCN(c3ccccn3)CC2)cc1` [GMC070], the Ki on Aβ fibrils was 64 nM; on tau fibrils, 90 nM; in assay [1], 6.8 nM.
The corresponding values for `COc1ccccc1NC(=O)Nc1ccc(N2CCN(c3ccccn3)CC2)c(C#N)c1` [GMC071] are 8180 nM, 86 nM and 14.2 nM.
`COc1ccccc1CC(=O)Nc1ccc(N2CCN(c3ccc(F)cc3)CC2)nc1` [GMC079]: the Ki turned out to be 404 nM on Aβ fibrils, 2510 nM on tau fibrils and 23.9 nM in assay [1].
With `COc1ccccc1CC(=O)Nc1ccc(N2CCN(c3ccc(F)cc3)CC2)cc1C#N` [GMC086], the Ki worked out at 809 nM on Aβ fibrils, 26 nM on tau fibrils and 15.2 nM in assay [1].
The corresponding values for `COc1ccc(-c2ccc(NC(=O)N3CCN(c4ccc(C#N)cn4)CC3)cc2C#N)cc1` [GMC095] are 2630 nM, 2510 nM and 14.5 nM.
The corresponding values for `COc1ccc(-c2ccc(NC(=O)N3CCN(c4ccc(OC)cc4)CC3)cc2C#N)cc1` [GMC096] are 51 nM, 2510 nM and 6.5 nM.
As to `COc1ccc(N2CCN(c3ccc(NC(=O)C(C)(C)C)cc3)CC2)cc1` [GMC-058], the Ki came out at 1490 nM on Aβ fibrils, 1320 nM at tau fibrils and 22.5 nM in assay [1].
Taken in the same sequence, the figures for `COc1ccccc1NC(=O)Nc1ccc(N2CCN(c3ccc(F)cc3)CC2)c(C#N)c1` [GMC-073] were 2630 nM, 248 nM and 8 nM.
Turning to `COc1ccc(-c2ccc(NC(=O)N3CCN(c4ccccc4)CC3)cc2C#N)cc1` [GMC-098], the Ki stood at 226 nM at Aβ fibrils, 805 nM at tau fibrils and 9.7 nM in assay [1].
As to `[3H]c1cccc(NC(=O)Nc2ccc(N3CCN(c4ccc(F)cc4)CC3)c(C#N)c2)c1OC` [[^3H]GMC-073, 1-(3-cyano-4-(4-(4-fluorophenyl)piperazin-1-yl)phenyl)-3-(2-methoxy-[3-3H]-phenyl)urea], in assay [2] (10 nM radioligand), the NSB was determined as 346.9 ± 14.5 fmol/mg tissue equivalent, the “Total Minus NSB” value is 318 fmol/mg and the Total binding was 664.6 ± 24.3 fmol/mg tissue equivalent. For the same compound, in assay [2] (20 nM radioligand), the NSB turned out to be 1022 ± 45 fmol/mg tissue equivalent, the “Total Minus NSB” value turned out to be 848 fmol/mg and the Total binding is recorded as 1870 ± 100.2 fmol/mg tissue equivalent. In assay [2], the “Binding displaced by GMC-044” value is “approximately 50%” and the “Binding in control tissue” value is reported as “clear binding”.
For the compound `[3H]c1ccc(N2CCN(C(=O)Nc3ccc(-c4ccc(OC)cc4)c(C#N)c3)CC2)cc1` [[^3H]GMC-098, N-(2-cyano-4′-methoxy-[1,1′-biphenyl]-4-yl)-4-([4-3H]phenyl)piperazine-1-carboxamide], in assay [2] (10 nM radioligand), the NSB is 1878 ± 74.1 fmol/mg tissue equivalent, the “Total Minus NSB” value worked out at 827 fmol/mg and the Total binding was 2705 ± 62.2 fmol/mg tissue equivalent. Also, in assay [2] (20 nM radioligand), the NSB is reported as 2336 ± 48.5 fmol/mg tissue equivalent, the “Total Minus NSB” value is 2810 fmol/mg and the Total binding is 5146 ± 386.2 fmol/mg tissue equivalent. Also, in assay [2], the “Binding displaced by GMC-044” value is recorded as “approximately 50%” and the “Binding in control tissue” value is “clear binding”.
For orientation: Kd means the free concentration of one partner at which half of the binding sites on the other are occupied at equilibrium, for simple one-to-one binding. For `O=C1c2cn(-c3ccc(N4CC[C@@H](F)C4)nc3)nc2CN1c1cccnc1` [[^18F]ACI-12589], the Kd on pTau is 317 nM; at α-syn (MSA, read-out: IC50 or KD α-syn (converted)), 28 nM; on α-syn (PD and MSA tissue, read-out: KD), around 30 nM; on α-syn (sporadic PD, read-out: IC50 or KD α-syn (converted)), 33.5 ± 17.4 nM; on Aβ, 317 nM.
The IC50 is the midpoint of a concentration-inhibition curve. Take `CNc1cnc(C#C/C=C/c2nc3ccc(OCC(O)CF)cc3s2)cn1` (centres unmarked) [[^18F]SPAL-T-06]: the IC50 with α-syn (MSA, read-out: IC50 or KD α-syn) was 2.5 nM; in the assay with α-syn (brain homogenates from DLB or MSA cases, homologous competition binding studies, read-out: IC50) it was 2 to 3 nM.
